Measurements from patent publication US7867750B2, “Method for anaerobic degradation of fuel oxygenates and similar compounds” (Rutgers, The State University of New Jersey, priority 2006, dated 2011).
“Also recorded” adds a separate entry of the source.

Assays:
[1] = MTBE loss in abiotic controls (methanogenic and sulfate-reducing media); type: physicochemical
Protocol: To examine the carbon isotope fractionation during anaerobic MTBE degradation, eight batch experiments are set up. Four serum bottles, each containing 100 ml of sulfate-reducing AK enrichment, are prepared as described above. Sodium molybdate (20 mM), a specific inhibitor of sulfate reduction, is added to two sulfate-reducing AK cultures. The two remaining cultures are kept under conditions promoting sulfate reduction. From the CC enrichment, two of the 100-ml cultures are prepared for each methanogenic and sulfate-reducing enrichment. Each culture had been enriched individually from separate CC sediment microcosms and had never been combined. Methanogenic and sulfate-reducing media are used as abiotic controls. Anaerobic MTBE stock solution is added to all live enrichments and abiotic controls to a final concentration of 25 to 30 mg liter^−1. […] The headspace MTBE concentrations of the cultures are monitored over time. […]
The concentration of MTBE is determined by a static headspace method. A 100-μl headspace sample is analyzed for MTBE with a Hewlett-Packard 5890 gas chromatograph (GC) equipped with a DB1 column (0.53 mm by 30 m; J&W Scientific, Folsom, Calif.) and a flame ionization detector with He as the carrier gas. […] For quantification, external aqueous standards of 3.0, 9.0, 15.0, and 30.0 mg liter^−1 for each compound are used. […]

MTBE-utilizing culture [2] = test: Effect of methoxylated aromatic compounds as co-substrates on MTBE utilization; type: cell-based; details: for lag period of MTBE utilization: 80 μM co-substrate added with MTBE; for effect on MTBE utilization/degradation rate: 80 μM co-substrate, first spiking; for effect on MTBE degradation rate: repeated spiking with MTBE + O-methyl aryl ether
[3] = system: sulfate-reducing Arthur Kill enrichment; test: Anaerobic MTBE biodegradation and carbon isotope fractionation, batch experiment; type: cell-based; details: 20 mM sodium molybdate, inhibitor of sulfate reduction
[4] = system: Coronado Cays sediment microcosms (methanogenic and sulfate-reducing); test: Development of MTBE-degrading enrichments from Coronado Cays sediment microcosms; type: cell-based; details: sediment with 5 mM lactate, sodium molybdate present
MTBE-utilizing culture [5] = test: MTBE utilization in the presence of various concentrations of syringate; type: cell-based

With `COC(C)(C)C` [MTBE, Methyl tert-butyl ether] the “MTBE loss in abiotic controls” value ([1]; both CC experiments, over 60 days) was < 10% and the “MTBE lost in abiotic controls” value ([1]; end of the Arthur Kill experiment) was 13%.

For `COc1ccccc1O` [guaiacol], the “lag period of MTBE utilization” value (MTBE-utilizing culture [2]) was “comparable to the culture receiving MTBE alone”, the “effect on MTBE utilization/degradation rate” value (MTBE-utilizing culture [2]) was “adverse effect on MTBE degradation; also recorded: more severe than that of vanillate; also recorded: decrease” and the “effect on MTBE degradation rate” value (MTBE-utilizing culture [2]) was “increased rate of degradation”.

With `[Na+].[Na+].[O]=[Mo](=[O])([O-])[O-]` [molybdate, sodium molybdate] the “effect on MTBE utilization rate” value [3] was “decreases drastically” and the “effect on sulfate reduction” value [4] was “No significant loss of sulfate”.

With `COc1cc(C(=O)O)cc(OC)c1O` [syringate, syringic acid] the “lag period of MTBE utilization” value (MTBE-utilizing culture [2]) was 55 days, the “effect on MTBE utilization/degradation rate” value (MTBE-utilizing culture [2]) was “enhances the MTBE utilization rate” and the “effect on MTBE utilization/degradation rate” value (MTBE-utilizing culture [2]; listed as syringic acid) was “increased the degradation rate”. For the same compound, the “effect on MTBE degradation rate” value (MTBE-utilizing culture [2]) was “increased rate of degradation”, the “effect on MTBE utilization” value (MTBE-utilizing culture [5]; 50 μM syringate) was “enhances MTBE utilization” and the “time in which MTBE is utilized” value (MTBE-utilizing culture [5]; 50 μM syringate as co-substrate) was “less than 80 days”. The “effect on MTBE utilization” value (MTBE-utilizing culture [5]; 100 μM syringate) was “enhances MTBE utilization”, the “effect on MTBE utilization” value (MTBE-utilizing culture [5]; 500 μM syringate) was “slightly increases MTBE-degrading activity” and the “effect on MTBE utilization” value (MTBE-utilizing culture [5]; 750 μM syringate) was “slight inhibitory effect on MTBE utilization”. The “effect on MTBE utilization” value (MTBE-utilizing culture [5]; 1000 μM syringate) was “limited MTBE utilization”.

For `COc1cc(C(=O)O)ccc1O` [vanillate, vanillic acid], the “lag period of MTBE utilization” value (MTBE-utilizing culture [2]) was “comparable to the culture receiving MTBE alone”, the “effect on MTBE utilization/degradation rate” value (MTBE-utilizing culture [2]) was “adverse effect on MTBE degradation; also recorded: decrease” and the “effect on MTBE degradation rate” value (MTBE-utilizing culture [2]) was “increased rate of degradation”.
